In this assay the target is T1, p-AXL (Homo sapiens, UniProt P30530).
T1 construct: expressed in transfected cells; host or cells: HEK293T
T1 sequence (P30530 26-894): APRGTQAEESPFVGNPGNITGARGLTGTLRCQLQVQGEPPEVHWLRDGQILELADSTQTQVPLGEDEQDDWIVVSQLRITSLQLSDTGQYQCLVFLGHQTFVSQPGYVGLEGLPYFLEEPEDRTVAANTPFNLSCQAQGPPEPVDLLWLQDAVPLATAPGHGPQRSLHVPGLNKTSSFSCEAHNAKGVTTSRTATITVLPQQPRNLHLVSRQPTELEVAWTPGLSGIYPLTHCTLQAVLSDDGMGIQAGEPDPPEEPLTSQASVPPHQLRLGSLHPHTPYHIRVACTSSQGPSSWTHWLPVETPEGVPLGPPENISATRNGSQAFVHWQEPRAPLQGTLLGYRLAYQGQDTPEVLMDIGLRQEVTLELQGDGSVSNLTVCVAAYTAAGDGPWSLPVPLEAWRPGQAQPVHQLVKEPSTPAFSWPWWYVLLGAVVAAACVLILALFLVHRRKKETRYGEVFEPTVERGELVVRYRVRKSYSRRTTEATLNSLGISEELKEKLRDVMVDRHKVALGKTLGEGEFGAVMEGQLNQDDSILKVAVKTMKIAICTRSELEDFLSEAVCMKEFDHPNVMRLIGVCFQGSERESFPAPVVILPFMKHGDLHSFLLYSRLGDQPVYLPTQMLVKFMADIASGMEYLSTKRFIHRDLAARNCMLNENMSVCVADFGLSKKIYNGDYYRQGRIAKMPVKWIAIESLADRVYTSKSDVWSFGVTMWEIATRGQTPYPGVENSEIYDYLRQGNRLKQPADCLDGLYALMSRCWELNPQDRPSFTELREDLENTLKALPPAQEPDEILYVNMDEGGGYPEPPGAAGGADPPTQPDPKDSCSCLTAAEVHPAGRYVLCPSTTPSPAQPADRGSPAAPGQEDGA
The assay can be described thus: Axl phosphorylation inhibition ELISA in HEK293T cells transfected with NanoLuc-tagged AXL. The assay is classed as cell-based. The following applies: 1 h compound incubation, media (OptiMEM). Put shortly: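 Phospho-AXL detected by luminescence of NanoLuc tag after capture of cell lysate on biotinylated anti-phospho-tyrosine mAb plates (2 h). Lysates came from transiently transfected HEK293T cells treated 1 h at 37° C with serial 2-fold dilutions (22 points). IC50 by standard 4-parameter logistic fitting.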

Compound `Cc1cccnc1-c1ccc(-c2c[nH]c3ncc(-c4ccc5c(c4)CC[C@@H](N4C6COCC4C6)CC5)cc23)cc1` [Example 1, 6-[(7S)-2-{3-[4-(3-Methylpyridin-2-yl)phenyl]-1H-pyrrolo[2,3-b]pyridin-5-yl}-6,7,8,9-tetrahydro-5H-benzo[7]annulen-7-yl]-3-oxa-6-azabicyclo[3.1.1]heptane] displayed a half-maximal inhibitory concentration (IC50) of less than 0.1 µM. With `Cc1cccnc1-c1ccc(-c2n[nH]c3ncc(-c4ccc5c(c4)CC[C@@H](N4C6COCC4C6)CC5)cc23)cc1` [Example 2, 6-[(7S)-2-{3-[4-(3-Methylpyridin-2-yl)phenyl]-2H-pyrazolo[3,4-b]pyridin-5-yl}-6,7,8,9-tetrahydro-5H-benzo[7]annulen-7-yl]-3-oxa-6-azabicyclo[3.1.1]heptane] the figure was less than 0.1 µM; with `COCCOc1cccnc1-c1ccc(-c2c[nH]c3ncc(-c4ccc5c(c4)CC[C@@H](N4C6COCC4C6)CC5)cc23)cc1` [Example 3, 6-[(7S)-2-(3-{4-[3-(2-Methoxyethoxy)pyridin-2-yl]phenyl}-1H-pyrrolo[2,3-b]pyridin-5-yl)-6,7,8,9-tetrahydro-5H-benzo[7]annulen-7-yl]-3-oxa-6-azabicyclo[3.1.1]heptane], less than 0.1 µM. As for `c1ccc(-c2ccc(-c3c[nH]c4ncc(-c5ccc6c(c5)CC[C@@H](N5C[C@@H]7C[C@H]5CO7)CC6)cc34)cc2)nc1` [Example 33, (1S,4S)-5-[(7S)-3-[3-(4-Pyridin-2-ylphenyl)-1H-pyrrolo[2,3-b]pyridin-5-yl]-6,7,8,9-tetrahydro-5H-benzo[7]annulen-7-yl]-2-oxa-5-azabicyclo[2.2.1]heptane], the 50% inhibitory concentration (IC50) lay in the range of 0.1 to 1 µM.

For the compound `c1cc(-c2ccc(-c3c[nH]c4ncc(-c5ccc6c(c5)CC[C@@H](N5C7COCC5C7)CC6)cc34)cc2)ccn1` [Example 41, 6-[(7S)-2-{3-[4-(Pyridin-4-yl)phenyl]-1H-pyrrolo[2,3-b]pyridin-5-yl}-6,7,8,9-tetrahydro-5H-benzo[7]annulen-7-yl]-3-oxa-6-azabicyclo[3.1.1]heptane], the 50% inhibitory concentration (IC50) was in the range of 0.1 to 1 µM. `Clc1cc(-c2c[nH]c3ncc(-c4ccc5c(c4)CC[C@@H](N4C6COCC4C6)CC5)cc23)ccc1-c1ccccn1` [Example 44, 6-[(7S)-2-{3-[3-Chloro-4-(pyridin-2-yl)phenyl]-1H-pyrrolo[2,3-b]pyridin-5-yl}-6,7,8,9-tetrahydro-5H-benzo[7]annulen-7-yl]-3-oxa-6-azabicyclo[3.1.1]heptane] showed an IC50 of 0.1 to 1 µM. With `c1cc(-n2cc(-c3c[nH]c4ncc(-c5ccc6c(c5)CC[C@@H](N5C7COCC5C7)CC6)cc34)cn2)ccn1` [Example 45, 6-[(7S)-2-{3-[1-(Pyridin-4-yl)-1H-pyrazol-4-yl]-1H-pyrrolo[2,3-b]pyridin-5-yl}-6,7,8,9-tetrahydro-5H-benzo[7]annulen-7-yl]-3-oxa-6-azabicyclo[3.1.1]heptane] the figure was 0.1 to 1 µM. Compound `N#Cc1cccnc1-c1ccc(-c2c[nH]c3ncc(-c4ccc5c(c4)CC[C@@H](N4C6COCC4C6)CC5)cc23)cc1` [Example 46, 2-(4-{5-[(7S)-7-{3-Oxa-6-azabicyclo[3.1.1]heptan-6-yl}-6,7,8,9-tetrahydro-5H-benzo[7]annulen-2-yl]-1H-pyrrolo[2,3-b]pyridin-3-yl}phenyl)pyridine-3-carbonitrile] displayed a half-inhibitory concentration (IC50) of less than 0.1 µM. With `Cc1cncnc1-c1ccc(-c2c[nH]c3ncc(-c4ccc5c(c4)CC[C@@H](N4C6COCC4C6)CC5)cc23)cc1` [Example 47, 6-[(7S)-2-{3-[4-(5-Methylpyrimidin-4-yl)phenyl]-1H-pyrrolo[2,3-b]pyridin-5-yl}-6,7,8,9-tetrahydro-5H-benzo[7]annulen-7-yl]-3-oxa-6-azabicyclo[3.1.1]heptane] the figure was less than 0.1 µM; with `Cc1nccnc1-c1ccc(-c2c[nH]c3ncc(-c4ccc5c(c4)CC[C@@H](N4C6COCC4C6)CC5)cc23)cc1` [Example 48, 6-[(7S)-2-{3-[4-(3-Methylpyrazin-2-yl)phenyl]-1H-pyrrolo[2,3-b]pyridin-5-yl}-6,7,8,9-tetrahydro-5H-benzo[7]annulen-7-yl]-3-oxa-6-azabicyclo[3.1.1]heptane], less than 0.1 µM.

In turn, `Cc1ccnnc1-c1ccc(-c2c[nH]c3ncc(-c4ccc5c(c4)CC[C@@H](N4C6COCC4C6)CC5)cc23)cc1` [Example 49, 6-[(7S)-2-{3-[4-(4-Methylpyridazin-3-yl)phenyl]-1H-pyrrolo[2,3-b]pyridin-5-yl}-6,7,8,9-tetrahydro-5H-benzo[7]annulen-7-yl]-3-oxa-6-azabicyclo[3.1.1]heptane] displayed an IC50 of less than 0.1 µM. Turning to `Cc1cnc(-c2ccc(-c3c[nH]c4ncc(-c5ccc6c(c5)CC[C@@H](N5C7COCC5C7)CC6)cc34)cc2)c(C)n1` [Example 50, 6-[(7S)-2-{3-[4-(3,5-Dimethylpyrazin-2-yl)phenyl]-1H-pyrrolo[2,3-b]pyridin-5-yl}-6,7,8,9-tetrahydro-5H-benzo[7]annulen-7-yl]-3-oxa-6-azabicyclo[3.1.1]heptane], the IC50 was less than 0.1 µM. To `Cc1ccnnc1-c1ccc(-c2c[nH]c3ncc(-c4ccc5c(c4)CC[C@@](C)(N4CCC[C@H]4C)CC5)cc23)cc1` [Example 51, 4-methyl-3-(4-{5-[(7S)-7-Methyl-7-[(2R)-2-methylpyrrolidin-1-yl]-6,7,8,9-tetrahydro-5H-benzo[7]annulen-2-yl]-1H-pyrrolo[2,3-b]pyridin-3-yl}phenyl)pyridazine] belongs less than 0.1 µM; to `N#Cc1cccnc1-c1ccc(-c2n[nH]c3ncc(-c4ccc5c(c4)CC[C@@H](N4C6COCC4C6)CC5)cc23)cc1` [Example 52, 2-(4-{5-[(7S)-7-{3-Oxa-6-azabicyclo[3.1.1]heptan-6-yl}-6,7,8,9-tetrahydro-5H-benzo[7]annulen-2-yl]-1H-pyrazolo[3,4-b]pyridin-3-yl}phenyl)pyridine-3-carbonitrile], less than 0.1 µM; to `Cc1cnc(C)c(-c2ccc(-c3c[nH]c4ncc(-c5ccc6c(c5)CC[C@@H](N5C7COCC5C7)CC6)cc34)cc2)n1` [Example 53, 6-[(7S)-2-{3-[4-(3,6-Dimethylpyrazin-2-yl)phenyl]-1H-pyrrolo[2,3-b]pyridin-5-yl}-6,7,8,9-tetrahydro-5H-benzo[7]annulen-7-yl]-3-oxa-6-azabicyclo[3.1.1]heptane], less than 0.1 µM. In turn, `Cc1nccnc1-c1ccc(-c2c[nH]c3ncc(-c4ccc5c(c4)CC[C@@H](N4C6COCC4C6)CC5)cc23)nc1` [Example 54, 6-[(7S)-2-{3-[5-(3-Methylpyrazin-2-yl)pyridin-2-yl]-1H-pyrrolo[2,3-b]pyridin-5-yl}-6,7,8,9-tetrahydro-5H-benzo[7]annulen-7-yl]-3-oxa-6-azabicyclo[3.1.1]heptane] showed an IC50 of less than 0.1 µM. For the compound `Cc1ccnnc1-c1ccc(-c2n[nH]c3ncc(-c4ccc5c(c4)CC[C@@H](N4C6COCC4C6)CC5)cc23)nc1` [Example 56, 6-[(7S)-2-{3-[5-(4-Methylpyridazin-3-yl)pyridin-2-yl]-1H-pyrazolo[3,4-b]pyridin-5-yl}-6,7,8,9-tetrahydro-5H-benzo[7]annulen-7-yl]-3-oxa-6-azabicyclo[3.1.1]heptane], the IC50 was less than 0.1 µM.

As to `Cc1cnc(-c2ccc(-c3c[nH]c4ncc(-c5ccc6c(c5)CC[C@@](C)(N5CCC[C@H]5C)CC6)cc34)cc2)c(C)n1` [Example 57, 3,5-Dimethyl-2-(4-{5-[(7S)-7-methyl-7-[(2R)-2-methylpyrrolidin-1-yl]-6,7,8,9-tetrahydro-5H-benzo[7]annulen-2-yl]-1H-pyrrolo[2,3-b]pyridin-3-yl}phenyl)pyrazine], the IC50 was less than 0.1 µM.

As for `Cc1cnc(C)c(-c2ccc(-c3c[nH]c4ncc(-c5ccc6c(c5)CC[C@@](C)(N5CCC[C@H]5C)CC6)cc34)cc2)n1` [Example 58, 2,5-Dimethyl-3-(4-{5-[(7S)-7-methyl-7-[(2R)-2-methylpyrrolidin-1-yl]-6,7,8,9-tetrahydro-5H-benzo[7]annulen-2-yl]-1H-pyrrolo[2,3-b]pyridin-3-yl}phenyl)pyrazine], the concentration for half-maximal inhibition (IC50) is less than 0.1 µM. With `Cc1cnc(-c2ccc(-c3c[nH]c4ncc(-c5ccc6c(c5)CC[C@@H](N5CCCC5)CC6)cc34)cc2)c(C)n1` [Example 59, 3,5-Dimethyl-2-(4-{5-[(7S)-7-(pyrrolidin-1-yl)-6,7,8,9-tetrahydro-5H-benzo[7]annulen-2-yl]-1H-pyrrolo[2,3-b]pyridin-3-yl}phenyl)pyrazine] the figure was 0.1 to 1 µM; with `Cc1cc(C)c(-c2ccc(-c3n[nH]c4ncc(-c5ccc6c(c5)CC[C@@H](N5C7COCC5C7)CC6)cc34)cc2)nn1` [Example 77, 6-[(7S)-2-{3-[4-(4,6-Dimethylpyridazin-3-yl)phenyl]-1H-pyrazolo[3,4-b]pyridin-5-yl}-6,7,8,9-tetrahydro-5H-benzo[7]annulen-7-yl]-3-oxa-6-azabicyclo[3.1.1]heptane], less than 0.1 µM.

By IC50 is commonly meant the concentration that gives 50% inhibition.
